Test results taken from patent publication US12606543B2, “Indole derivatives as serotonergic agents useful for the treatment of disorders related thereto” (priority 2023, dated 2026).
Read-outs that look alike come from different tables or passages of the source.

Key:
[1] = Plasma protein binding by equilibrium dialysis, human; type: in vitro ADME; details: for fraction unbound at 6 h, 1 μM: read-out: % Bound (converted); for recovery at 6 h, 1 µM: human, plasma
Procedure: The final concentration of compound was 1 μM. The final concentration of DMSO was 0.5%. Ketoconazole was used as positive control in the assay.
The assay was performed in duplicate.
All calculations were carried out using Microsoft Excel. […] The percentages of bound compound were calculated as follows: […]
Ketoconazole was used as positive control in the assay.

human 5-HT2B receptor [2] = target: T1, human 5-HT2B receptor (Homo sapiens, UniProt P41595); assay: Human 5-HT2B FLIPR calcium mobilization assay; type: cell-based; parameters: expressed in transfected cells; host or cells: HEK293; details: for Emax (% of serotonin): HEK293 cells, relative to maximum response of serotonin
Procedure: Compound potency (EC50) and efficacy (Max response) against the human 5-HT2B receptor in stably transfected HEK293 cells were determined in a calcium mobilization-based assay.
Cells were seeded in a total volume of 20 μL into white walled, 384-well microplates and incubated at 37° C. overnight. Prior to testing, cell plating media was exchanged with 20 μL of Dye Loading buffer (HBSS+20 mM HEPES containing 1× Dye, 1× Additive A, and 2.5 mM Probenecid). Plates were incubated at 37° C. for 45 mins followed by 15 mins at room temperature.
(§1) 10 μL of assay buffer (HBSS+20 mM HEPES) were added to cells. Intermediate dilution of sample stocks was performed to generate 4× samples in assay buffer. Assay plates and compound plates were loaded into the FLIPR instrument. 10 μL of sample was added using the FLIPR onboard robotics after 5 seconds of starting calcium measurement. A final assay vehicle concentration was 1%. The results are expressed as percent efficacy relative to the maximum response of the control ligand (serotonin) in Table 12.
Compound potency (EC50) and efficacy (Max response) against the human 5-HT2B receptor in stably transfected HE K293 cells was determined in a calcium mobilization-based assay.
as §1, with “HEPES) was” for “HEPES) were”, “of samples were” for “of sample was”, “5 secs” for “5 seconds”, “measurement. The” for “measurement. A”, “Table 62.” for “Table 12.”

human 5-HT2B receptor [3] = target: T1, human 5-HT2B receptor; assay: Human 5-HT2B radioligand binding assay ([3H]-LSD)
Procedure: The objective of this study was to evaluate the binding properties of test compounds on 5-HT2B.
1) The assay buffer was prepared following Table 29 below.
2) Eight doses of reference and test compounds starting from 10 mM stock solution as requested by 5-fold serial dilutions with 100% (v/v) DMSO.
3) UniFilter-96 GF/B plate was pretreated: • a. 50 μL/well of 0.5% (v/v) PEI to UniFilter-96 GF/B plates. The plates were sealed and incubated at 4° C. for 3 hrs. • b. After incubation, the plates were washed 3 times with ice-cold wash buffer (50 mM Tris, pH 7.4).
4) Assay plate preparation: • a. Cell membrane was diluted with assay buffer and 330 μL/well added to 96 round deep well plates to reach a concentration of 1 unit/well. • b. Eight concentrations of reference or test compounds were prepared and 110 μL/well added to 96 round deep well plates. • c. [3H]-LSD was diluted with assay buffer to 5 nM (5× final concentration) and 110 μL/well was added to 96 round deep well plates.
5) The plate was centrifuged at 1000 rpm for 30 secs and then agitated at 600 rpm at room temperature for 5 mins.
6) The plates were sealed and incubated at 37° C. for 90 mins.
7) The incubation was stopped by vacuum filtration onto GF/B filter plates followed by washing four times with ice-cold wash buffer (50 mM Tris, pH7.4).
9) The filter plates were sealed and 40 μL/well of scintillation cocktail was added.
10) The plate was read using a Microbeta2 microplate counter.
(§2) For reference and test compounds, the results are expressed as % Inhibition, using the normalization equation: N=100−100×(U−C2)/(C1−C2), where U is the unknown value, C1 is the average of high controls, and C2 is the average of low controls. The IC50 is determined by fitting percentage of inhibition as a function of compound concentrations with Hill equation.
The objective of this study is to evaluate the binding properties of test compounds on 5-HT2B.
1) The assay buffer was prepared following Table 59 below.
3) UniFilter-96 GF/B plate was pretreated: • a. 50 μL/well of 0.5% (v/v) PEI to UniFilter-96 GF/B plates. The plates were sealed and incubate at 4° C. for 3 hrs. • b. After incubation, the plates were washed three times with ice-cold wash buffer (50 mM Tris, pH7.4).
5) The plate was centrifuged at 1000 rpm for 30 secs and then agitated at 600 rpm at room temperature for 5 min.
8) The plates were dried at 37° C. for 45 mins.
10) The plate was read using a Microbeta^2 microplate counter.
as §2, with “average of the high controls,” for “average of high controls,”, “average of the low controls.” for “average of low controls.”

[4] = [3H]-LSD displacement, cell membrane, 37° C., 90 min, read-out: 5-HT2B, IC50
[5] = [3H]-LSD displacement, cell membrane, 37° C., 90 min, read-out: 5-HT2B, Ki
[6] = human plasma, equilibrium dialysis, 37° C., 6 hours
[7] = calcium mobilization FLIPR, stably transfected HEK293 cells, read-out: EC50

T1 sequence (P41595 whole entry): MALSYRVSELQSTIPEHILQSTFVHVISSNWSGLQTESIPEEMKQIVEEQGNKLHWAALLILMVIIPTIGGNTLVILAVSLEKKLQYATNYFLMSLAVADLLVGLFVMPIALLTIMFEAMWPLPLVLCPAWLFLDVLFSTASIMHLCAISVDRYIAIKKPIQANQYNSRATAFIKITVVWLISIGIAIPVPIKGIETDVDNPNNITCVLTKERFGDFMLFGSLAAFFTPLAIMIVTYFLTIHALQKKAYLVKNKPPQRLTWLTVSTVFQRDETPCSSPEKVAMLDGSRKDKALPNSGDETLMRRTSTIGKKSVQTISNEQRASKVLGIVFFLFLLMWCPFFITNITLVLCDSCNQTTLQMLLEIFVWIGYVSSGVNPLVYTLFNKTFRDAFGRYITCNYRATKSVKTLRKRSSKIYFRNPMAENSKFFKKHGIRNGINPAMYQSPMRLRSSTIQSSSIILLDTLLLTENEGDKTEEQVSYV

Row | SMILES | Emax (% of serotonin) (human 5-HT2B receptor [2]; calcium mobilization FLIPR) | IC50 (human 5-HT2B receptor [3]; [4]) | Ki (human 5-HT2B receptor [3]; [5]) | % Remaining @ 6 hours ([1]; human plasma, 6 hours) | fraction unbound at 6 h, 1 μM [1, 6] | recovery at 6 h, 1 µM [1, 6] | EC50 (human 5-HT2B receptor [2]; [7]) | further results
1 | CSc1ccc2[nH]cc(C[C@H]3CCCN3C)c2c1 [(R) I-1, (R)-3-((1-Methylpyrrolidin-2-yl)methyl)-5-(methylthio)-1H-indole] | 62.94 % of serotonin |  |  |  |  |  |  | % Remaining @ 6 hours ([1]; Human plasma, 1 μM, 6 hours, 37° C.): 103.38%; fraction unbound at 6 h, 1 μM ([1]; Human plasma, 1 μM, equilibrium dialysis 6 hours, 37° C.): 0.16; recovery at 6 h, 1 µM ([1]; Human plasma, 1 μM, equilibrium dialysis 6 hours): 102%; EC50 (human 5-HT2B receptor [2]): 2.74 nM; IC50 (human 5-HT2B receptor [3]): 19 nM; Ki (human 5-HT2B receptor [3]): 9.82 nM
2 | [2H]C([2H])(c1c[nH]c2ccc(OCCCCCN3C(=O)C4CCCCC4C3=O)cc12)[C@H]1CCCN1C([2H])([2H])[2H] (mixture of isomers) [Rac (R) I-248] |  | 46.3 nM | 23.9 nM |  |  |  |  | 
3 | COCCN1CCC[C@@H]1Cc1c[nH]c2ccc(OC)cc12 [(R) I-98, (R)-5-Methoxy-3-((1-(2-methoxyethyl)pyrrolidin-2-yl)methyl)-1H-indole] | 52.7 % of serotonin | 45.6 nM | 23.6 nM | 104.64% | 0.168 | 101% | 2.88 nM | 
4 | [2H]C([2H])(c1c[nH]c2ccc(OCCCCCN3C(=O)c4ccccc4C3=O)cc12)[C@H]1CCCN1C([2H])([2H])[2H] [(R) I-245, (R)-2-(5-((3-((1-(Methyl-d3)pyrrolidin-2-yl)methyl-d2)-1H-indol-5-yl)oxy)pentyl)isoindoline-1,3-dione] | 53.91 % of serotonin |  |  |  |  |  | 11.2 nM | 
5 | [2H]C([2H])(c1c[nH]c2ccc(OCCCCCN3C(=O)[C@H]4CCCC[C@H]4C3=O)cc12)[C@H]1CCCN1C([2H])([2H])[2H] [Cis (R) I-248, 2-(5-((3-(((R)-1-(Methyl-d3)pyrrolidin-2-yl)methyl-d2)-1H-indol-5-yl)oxy)pentyl)hexahydro-1H-isoindole-1,3(2H)-dione] | 69.85 % of serotonin |  |  |  |  |  | 24.9 nM | 
6 | [2H]C([2H])(c1c[nH]c2ccc(OCCCCN3C(=O)c4ccccc4C3=O)cc12)[C@H]1CCCN1C([2H])([2H])[2H] [(R) I-244, (R)-2-(4-((3-((1-(Methyl-d3)pyrrolidin-2-yl)methyl-d2)-1H-indol-5-yl)oxy)butyl)isoindoline-1,3-dione] | 92.75 % of serotonin | 21.4 nM | 11.1 nM | 105.89% | 0.0142 | 90.1% | 2.5 nM | 
